Measured values reported in patent US8404239B2, “Anti-Notch2 NRR antibodies” (Genentech, Inc., priority 2008, dated 2013).

Tests used:
[1] = system: Notch2 signaling; assay: Co-culture Notch reporter assay, Notch2 signaling (U87MG cells + Jag1 cells); type: cell-based; details: Jag1-induced; DAPT 5 μM
Description: (§1) NIH-3T3 cells stably transfected with Jag1 were used to induce Notch signaling in NIH-3T3 cells stably transfected with Notch1 (except for “−Jag1”, which used untransfected NIH-3T3 cells in place of the Jag1-expressing cells). […] NIH-3T3 cells stably transfected with Jag1 were used to induce Notch signaling in U87MG cells, which express high levels of Notch2. The assay was performed as described in (A). […] The assay was performed as in (A) except that the receptor-expressing cells were generated by transient transfection of plasmids expressing the indicated Notch1 receptors.
Co-culture assay in U87MG cells, as described in FIG. 10B.
(§2) NIH-3T3 cells either stably transfected with Notch 1 or transiently transfected with plasmids containing other Notch receptors were co-transfected with a Notch-responsive TP-1 (12× CSL) Firefly luciferase reporter and a constitutively active Renilla Luciferase reporter (pRL-CMV, Promega) to control for transfection efficiency. Cells are allowed to recover from the transfection from 6 hours to overnight. Treatments of antibodies and NIH-3T3 cells stably transfected with ligand are used to stimulate the receptor cells. After 20 hours, firefly and Renilla luciferase are measured with Dual Glo Luciferase Assay system (Promega). Eight replicates were analyzed for each condition by dividing the Firefly signal by the Renilla signal to control for transfection efficiency. The mean and standard deviation were calculated and values were normalized to calculated values for co-culture stimulated with NIH-3T3 cells without ligand transfected.

[2] = system: LOX-IMVI melanoma cells; assay: Cell Titer Glo viability of melanoma cell line LOX-IMVI; type: cell-based, human; details: six days, antibodies 20 mg/ml, DAPT 5 μM, ± Jagged-1
Description: (§3) Human melanoma cell lines SK23 and LOX-IMVI were plated in medium containing 2% FBS at low density (4000 cells/well for SK23, 2500 cells/well for LOX-IMVI) in 96 well plates that were coated without (−jag-1) or with Jagged-1 ligand (+jag-1) (R&D Systems, Minneapolis, Minn.). […] An equal volume of DMSO served as the vehicle control, whereas an equal concentration of anti-gD HuB6 phage antibody served as the isotype control antibody. Cell Titer Glo assays (Promega, Madison, Wis.) were performed six days after plating. […] In FIGS. 25A and 25B, cell viability (y-axis) is expressed relative to the values from the DMSO vehicle, −jag-1 control wells.

[3] = system: Notch1 signaling; assay: Co-culture Notch reporter assay, Notch1 signaling (NIH-3T3 Notch1 cells + ligand cells); type: cell-based; details: Jag1-induced; α-gD 2000 ng/ml; DAPT 5 μM
Description: as §1
as §2, with “Cells are allowed to recover from the transfection from 6 hours to overnight. Treatments of antibodies and NIH-3T3 cells stably transfected with ligand are used to stimulate the receptor cells.” left out

[4] = system: SK23 melanoma cells; assay: Cell Titer Glo viability of melanoma cell line SK23; type: cell-based, human; details: six days, antibodies 20 mg/ml, DAPT 5 μM, ± Jagged-1
Description: as §3

[5] = system: intestinal cell differentiation; assay: Histology and immunohistochemistry of mouse intestine tissue; type: in vivo
From the text: (A) Total body weight change (mean+/−standard deviation) vs. time. […] Arrows mark the days of dosing. (B) Immunohistochemical analyses of small intestines. […] In each row as indicated, staining is shown for haemotoxylin and eosin (H & E), Alcian Blue for mucin and to mark secretory goblet cells, lysozyme to mark Paneth cells, Ki-67 for proliferation and Hes1 as a Notch downstream target. See FIGS. 19 and 20 for analyses of the large intestine at day 7 and of the small intestine at day 2, respectively. Bar=40 μm. (C) Comparison of Notch1- versus Notch2-specific inhibition on small intestinal cell differentiation. Small intestines from the study described in (A) were prepared for Alcian Blue and Ki-67 one day after the final dosing with α-gD, α-NRR1 or α-NRR2, as indicated. Bar=50 μm.
Formalin-fixed and paraffin-embedded mouse small intestine tissues were sectioned at 3 micron thickness. Histochemical identification of intestinal cell types was performed with Alcian blue as recommended by the manufacturer (PolyScientific). For anti-Ki67 staining, sections were pretreated with Target Retrieval Solution (S1700, DAKO), and incubated with rabbit anti-Ki67 (1:200, clone SP6, Neomarkers). Secondary goat anti-rabbit at 7.5 μg/ml (Vector labs) was detected with the Vectastain ABC Elite Kit (Vector labs). Ki67 stained sections were counterstained with Mayer's haemotoxylin. For anti-lysozyme staining, sections were processed on the Discovery XT platform (Ventana Medical Systems, Inc.) using CC1m epitope recovery conditions, OmniMap-rabbit detection and Ventana haemotoxylin II/with bluing counterstain. For HES-1 staining, anti-rat HES-1 (clone NM1, MBL, International) was followed by TSA-HRP.
The effect of inhibiting both Notch1 and Notch2 on intestinal cell fate determination was also investigated. […] The intestines were harvested and stained with H&E to reveal the crypt morphology. […] Further experimentation confirmed this observation.

[6] = system: HUVECs; assay: HUVEC fibrin gel bead endothelial cell sprouting assay; type: cell-based, human; details: HUVEC co-cultured with skin fibroblasts; 1 μM DBZ, 5 μg/ml antibodies
Description: (A) In vitro endothelial cell sprouting assay. HUVECs were coated on Cytodex beads and co-cultured with skin fibroblasts. Cultures were either mock treated (control) or treated with 1 μM of DBZ, 5 μg/ml of α-NRR1 or 5 μg/ml of α-D114. Bar=100 μm. (B) Sprout length measurements from the cultures in (A). (C) Mouse neonate retinal assay for endothelial cell sprouting and angiogenesis. Mouse neonates were injected at P1 and P3 with the indicated antibodies, and retinas were prepared at P5 to visualize perfusion of isolectin or the Ki67 marker for proliferation. Panels I and II, Bar=1 mm. Panels III-VI represent enlargements of part of panels I and II, bar=0.2 mm.
HUVEC cells were grown on fibrin gel beads as previously described (Nakatsu et al., 2003). Cytodex 3 beads (Amersham Pharmacia Biotech) were coated with 350-400 HUVECs per bead in 2 ml EGM-2 medium (Clonetics). About 200 HUVEC coated beads were imbedded in fibrin clot in one well of 12-well tissue culture plate. […] Medium was changed every two days. After seven to nine days, fibrin gels were then fixed with 4% paraformaldehyde and endothelial cells were stained with anti-CD31 (R&D Systems AF806) using a FITC-conjugated secondary antibody for detection.

Row | Notch signaling (Hes1 staining), large intestine ([5]; day 7) | goblet cell numbers (Alcian Blue and H&E), large intestine ([5]; day 7) | Hes1 expression, small intestine ([5]; day 7, DBZ 30 μmol/kg) | goblet cell population (Alcian Blue), small intestine ([5]; day 7, DBZ 30 μmol/kg) | intestinal cell fate changes at early time point ([5]; small intestine, day 2) | Compound | effect on Notch2 reporter signaling [1] | cell viability [2] | effect on Notch1 reporter signaling [3] | cell viability [4] | progenitor cell proliferation (Ki-67), large intestine ([5]; day 7) | Paneth cells (lysozyme staining), small intestine ([5]; day 7, DBZ 30 μmol/kg) | progenitor cell proliferation (Ki-67), small intestine ([5]; day 7, DBZ 30 μmol/kg) | endothelial cell sprouts (number and length) [6]
1 |  |  |  |  |  | C[C@H](NC(=O)Cc1cc(F)cc(F)c1)C(=O)N[C@H](C(=O)OC(C)(C)C)c1ccccc1 [DAPT, reference compound] | reduced to background | decrease in viability | reduced to background | decrease in viability |  |  |  | 
2 | significantly reduced Notch signaling | increased goblet cell numbers | inhibition of Hes1 expression | dramatic expansion | only weakly detectable | C[C@H](NC(=O)Cc1cc(F)cc(F)c1)C(=O)N[C@@H]1C(=O)N(C)c2ccccc2-c2ccccc21 [DBZ] |  |  |  |  | blocked progenitor cell proliferation | increased the numbers and/or activity of Paneth cells | decrease in progenitor cell proliferation | increased both the number and length
